Measured values as given in ChEMBL document CHEMBL2390873, “Rational design, synthesis and QSAR study of vasorelaxant active 3-pyridinecarbonitriles incorporating 1H-benzimidazol-2-yl function” (Eur J Med Chem, 2013).

System: Aorta
Test: Vasorelaxant activity in Wister rat isolated thoracic aortic rings assessed as reduction of norepinephrine hydrochloride-induced contraction
Format: functional, tissue-based

Structure (SMILES)	IC50 [µM]
COc1nc(-c2nc3ccccc3n2C)cc(-c2ccc(Cl)cc2)c1C#N	145
COc1nc(-c2nc3ccccc3n2C)cc(-c2ccc(Cl)cc2Cl)c1C#N	214
COc1ccc(-c2cc(-c3nc4ccccc4n3C)nc(OC)c2C#N)cc1	210
COc1nc(-c2nc3ccccc3n2C)cc(-c2ccccc2)c1C#N	300
COc1nc(-c2nc3ccccc3[nH]2)cc(-c2ccc(Cl)cc2)c1C#N	286
COc1nc(-c2nc3ccccc3n2C)cc(-c2ccc(C)o2)c1C#N	283
CCOc1nc(-c2nc3ccccc3n2C)cc(-c2cccs2)c1C#N	249
COc1nc(-c2nc3ccccc3n2C)cc(-c2cccs2)c1C#N	312
COc1nc(-c2nc3ccccc3[nH]2)cc(-c2ccc(C)o2)c1C#N	202
CCOc1nc(-c2nc3ccccc3n2C)cc(-c2ccc(Cl)cc2Cl)c1C#N	305

Continued, values first:

IC50 [µM]	Structure (SMILES)
436	CCOc1nc(-c2nc3ccccc3n2C)cc(-c2ccc(OC)cc2)c1C#N
293	CCOc1nc(-c2nc3ccccc3n2C)cc(-c2ccc(Cl)cc2)c1C#N
362	CCOc1nc(-c2nc3ccccc3n2C)cc(-c2ccc(F)cc2)c1C#N
400	CCOc1nc(-c2nc3ccccc3n2C)cc(-c2ccc(C)cc2)c1C#N
364	CCOc1nc(-c2nc3ccccc3n2C)cc(-c2ccccc2)c1C#N
343	COc1nc(-c2nc3ccccc3n2C)cc(-c2ccc(F)cc2)c1C#N
295	COc1nc(-c2nc3ccccc3n2C)cc(-c2ccc(C)cc2)c1C#N
336	CCOc1nc(-c2nc3ccccc3n2C)cc(-c2ccc(C)o2)c1C#N
